Assay results reported in ChEMBL document CHEMBL1136072, “Structural features of piperazinyl-linked ciprofloxacin dimers required for activity against drug-resistant strains of Staphylococcus aureus” (2003).

Columns and labels:
Type in all cases: functional
Staphylococcus aureus [1] = test: Minimum inhibitory concentration required against Staphylococcus aureus MRSA 494, methicillin resistant SA isolate
Staphylococcus aureus [2] = test: Minimum inhibitory concentration required against Staphylococcus aureus SA-1199, wild-type isolate
Staphylococcus aureus [3] = test: Minimum inhibitory concentration required against Staphylococcus aureus GISA 992, vancomycin-insensitive SA.
Staphylococcus aureus [4] = test: Minimum inhibitory concentration required against Staphylococcus aureus SA 1199-3, laboratory-derived mutant of SA 1199 that inducibly overexpresses norA, no gyrase or topoisomerase IV mutations
Staphylococcus aureus [5] = test: Minimum inhibitory concentration required against Staphylococcus aureus SA 1199B, constitutively overexpresses norA and harbors a topoisomerase IV A subunit substitution (A116E); design: unit not given beside the values

| Compound | MIC (Staphylococcus aureus [1]) | MIC (Staphylococcus aureus [2]) | MIC (Staphylococcus aureus [3]) | MIC (Staphylococcus aureus [4]) | MIC (Staphylococcus aureus [5]) |
| --- | --- | --- | --- | --- | --- |
| CCn1cc(C(=O)O)c(=O)c2cnc(N3CCN(Cc4ccc(CN5CCN(c6cc7c(cc6F)c(=O)c(C(=O)O)cn7C6CC6)CC5)cc4)CC3)nc21 | 0.125 | <0.03 | 2 |  |  |
| O=C(O)c1cn(C2CC2)c2cc(N3CCN(Cc4ccc(CN5CCN(c6cc7c(cc6F)c(=O)c(C(=O)O)cn7C6CC6)CC5)cc4)CC3)c(F)cc2c1=O |  | 0.125 | 4 |  |  |
| O=C(O)c1cn(C2CC2)c2cc(N3CCN(Cc4ccc(CN5CCN(c6cc7c(cc6F)c(=O)ccn7C6CC6)CC5)cc4)CC3)c(F)cc2c1=O | 1 | 0.25 | >16 | 0.5 | 0.5 |
| O=C(O)c1cn(C2CC2)c2cc(N3CCN(/C=C/CN4CCNCC4)CC3)c(F)cc2c1=O | 2 | 1 | >16 | 2 | 2 |
| CN1CCN(c2cc3c(cc2F)c(=O)c(C(=O)O)cn3C2CC2)CC1 | 0.5 | 0.125 | 32 | 1 | 8 |
| O=C(O)c1cn(C2CC2)c2cc(N3CCN(/C=C/CN4CCN(c5ccccc5F)CC4)CC3)c(F)cc2c1=O |  | 0.5 | >16 |  |  |
| O=C(O)c1cn(C2CC2)c2cc(N3CCN(Cc4ccc(CN5CCN(c6ccccc6F)CC5)cc4)CC3)c(F)cc2c1=O |  | 0.5 | 16 |  |  |
| O=C(O)c1cn(C2CC2)c2cc(N3CCN(/C=C/CN4CCN(c5cc6c(cc5F)c(=O)c(C(=O)O)cn6C5CC5)CC4)CC3)c(F)cc2c1=O | 0.125 | 0.03 | >16 | 0.06 |  |
| CN1CCN(c2cc3c(cc2F)c(=O)ccn3C2CC2)CC1 | >16 | >16 | >16 | >16 | >16 |
| O=C(O)c1cn(C2CC2)c2cc(N3CCN(Cc4ccc(CN5CCNCC5)cc4)CC3)c(F)cc2c1=O | 0.25 | 0.5 | >16 |  | 1 |
| CCn1cc(C(=O)O)c(=O)c2cnc(N3CCNCC3)nc21 [PIPEMIDIC ACID] |  | >16 | >16 |  |  |
